Assay results as given in article PMC4951311 (Oncotarget, 2016).
Entries after “also recorded” stand apart in the source; their conditions may differ. Where a name gives a salt, the structure may show the parent alone.

How the values were obtained:
Type in all cases: in vivo, human
[1] = Steady-state plasma pharmacokinetics of enzastaurin and metabolites in native Chinese cancer patients (LC-MS/MS, noncompartmental)
Protocol: Then, the study drug ceased for three days (days 15 to 17) and resumed on day 18, after the last PK sample was obtained. During the study, dosing occurred at approximately the same time of day for each individual patient.
Nominal collection times were day 14 predose and 1, 2, 4, 6, 8, 10, 24, 48, 72, and 96 h postdose. […] The actual sampling time was accurately recorded for analysis.
Pharmacokinetic parameters were calculated using noncompartmental methods of analysis using WinNonlin (Pharsight Corp., Cary, NC, USA). […] Total plasma analyte AUCτ, ss and Cav ss were calculated by summing the respective AUCτ, ss or Cav, ss estimates for each of the 4 individual analytes. Total plasma analyte Cmax was reported as the highest sum of individual analyte concentrations at any given sampling time during a concentration-time profile, not the sum of the Cmax of each analyte. […] The AUC was calculated by a combination of linear and logarithmic trapezoidal methods. The linear trapezoidal method was employed up to tmax, and the log trapezoidal method was then used for data after tmax. PK measurements were calculated based on the actual collection times. Patients with insufficient data were excluded from the analysis.

[2] = Safety: adverse events graded by CTCAE v3.0 in native Chinese cancer patients
Protocol: Eligibility assessments, which consisted of a complete medical history, physical examination, ECOG performance status, vital sign measurements, concomitant drugs, ECG, laboratory tests, one or more relevant radiologic test(s) for tumor measurement (computed tomography scan, magnetic resonance imaging, X-ray, or bone scan) and tumor measurement of palpable or visible lesions, were conducted within 28 days before the lead-in day. Lead-in day (within 7 days before treatment initiation) assessments included physical examination, ECOG performance status, vital sign measurements, concomitant drugs, ECG (at 0 and 4 h) and laboratory tests.
ECGs were performed 4 h after treatment on days 1 and 2. Patients received the same assessments on day 14 as on the lead-in day, except that ECGs were performed predose (0 h) and 4 h postdose. Blood samples for PK were collected from days 14 to 18. After retreatment for 2 to 4 weeks from day 18, patients were re-evaluated to determine whether they should continue in the safety extension phase or washout prior to withdrawal from the study.
(§1) All patients who entered the safety extension phase were evaluated with a physical examination, vital signs, laboratory tests, concomitant drugs, ECG at a 4-week follow-up visit, tumor measurements and imaging studies at 4- to 8-week intervals.
(§2) All observed AEs were graded using the CTCAE, version 3.0 (NCI 2003). Imaging studies of involved disease sites were repeated every 4 to 8 weeks in patients who entered the safety extension phase. All lesion assessments, whether by physical examination or radiologic methods, were repeated by the same methods at least 4 weeks following the initial observation of an objective response for response confirmation. Responses were recorded based on Response Evaluation Criteria in Solid Tumors, version 1.0 (RECIST 1.0), and Revised Response Criteria for Malignant Lymphoma.

[3] = test system: refractory solid tumors and lymphoma; assay: Anti-tumor response (RECIST 1.0 / Revised Response Criteria for Malignant Lymphoma), safety extension phase
Protocol: as §1, §2

[4] = of 9 non-Hodgkin lymphoma patients
[5] = of 10 evaluated lymphoma patients

In the case of `Cn1cc(C2=C(c3cn(C4CCN(Cc5ccccn5)CC4)c4ccccc34)C(=O)NC2=O)c2ccccc21` [enzastaurin, Enzastaurin monohydrochloride], the “Cav, ss” value ([1]; 500 mg orally once daily, steady state, geometric mean (% CV), N = 23) is reported as 1,210 nmol/L, the “Cav, ss” value ([1]; 500 mg orally once daily, steady state, geometric mean (% CV), N = 23, listed as Enzastaurin) is reported as 1210 (128) nmol/L and the Cmax ([1]; human, plasma, po, 500 mg) is reported as 2370 nM. It also gave a Tmax ([1]; human, plasma, po, 500 mg, 500 mg orally once daily, steady state, median and range, N = 23) of no more than 4 h, an AUC ([1]; human, plasma, po, 500 mg orally once daily, steady state, one dosing interval, geometric mean (% CV), N = 23) of 29.1 µM·h and a half-life ([1]; human, plasma, po, 500 mg orally once daily, washout days 15-17, geometric mean and range, N = 21) of 14 h. The Tolerability ([2]; 500 mg daily, Chinese patients) was “well tolerated with minimal toxicity”, the “Deaths or serious adverse events during the study” value ([2]; 500 mg once daily) was “No deaths or other serious adverse events; also recorded: Neither drug-related deaths nor serious AEs were reported” and the “Discontinuation because of an AE” value ([2]; 500 mg once daily) was “No patients discontinued because of an AE; also recorded: No patient withdrew from the study because of toxicity”. The “Patients reporting at least 1 AE (percent)” value ([2]; PK phase) was 80%, the “Patients reporting at least 1 AE, drug related” value ([2]; PK phase) was 14 and the “Patients reporting at least 1 AE” value ([2]; PK phase, 25 patients treated) was 20 patients. For the same compound, the “Number of patients with drug-related abdominal pain, grade 0” value ([2]; maximum grade 0, n = 25) was 22, the “Number of patients with drug-related anemia, grade 0” value ([2]; maximum grade 0, n = 25) was 24 and the “Number of patients with drug-related chromaturia, grade 0” value ([2]; maximum grade 0, n = 25) was 22. For the same compound, the “Number of patients with drug-related diarrhea, grade 0” value ([2]; maximum grade 0, n = 25) was 24, the “Number of patients with drug-related fatigue, grade 0” value ([2]; maximum grade 0, n = 25) was 24 and the “Number of patients with drug-related increased ALT, grade 0” value ([2]; maximum grade 0, n = 25) was 22. For the same compound, the “Number of patients with drug-related increased AST, grade 0” value ([2]; maximum grade 0, n = 25) was 23, the “Number of patients with drug-related insomnia, grade 0” value ([2]; maximum grade 0, n = 25) was 24 and the “Number of patients with drug-related leukopenia, grade 0” value ([2]; maximum grade 0, n = 25) was 23. The “Number of patients with drug-related lymphocytopenia, grade 0” value ([2]; maximum grade 0, n = 25) was 23, the “Number of patients with drug-related nausea, grade 0” value ([2]; maximum grade 0, n = 25) was 24 and the “Number of patients with drug-related neutropenia, grade 0” value ([2]; maximum grade 0, n = 25) was 24. The “Number of patients with drug-related thrombocytopenia, grade 0” value ([2]; maximum grade 0, n = 25) was 24, the “Number of patients with drug-related QT prolongation, grade 0” value ([2]; maximum grade 0, n = 25, 500 mg daily) was 21 and the “Number of patients with drug-related abdominal pain, grade 1” value ([2]; maximum grade 1, n = 25) was 3. The “Number of patients with drug-related anemia, grade 1” value ([2]; maximum grade 1, n = 25) was 1, the “Number of patients with drug-related chromaturia, grade 1” value ([2]; maximum grade 1, n = 25) was 3 and the “Number of patients with drug-related fatigue, grade 1” value ([2]; maximum grade 1, n = 25) was 1. The “Number of patients with drug-related increased ALT, grade 1” value ([2]; maximum grade 1, n = 25) was 3, the “Number of patients with drug-related increased AST, grade 1” value ([2]; maximum grade 1, n = 25) was 2 and the “Number of patients with drug-related leukopenia, grade 1” value ([2]; maximum grade 1, n = 25) was 1. For the same compound, the “Number of patients with drug-related lymphocytopenia, grade 1” value ([2]; maximum grade 1, n = 25) was 1, the “Number of patients with drug-related nausea, grade 1” value ([2]; maximum grade 1, n = 25) was 1 and the “Number of patients with drug-related neutropenia, grade 1” value ([2]; maximum grade 1, n = 25) was 1. For the same compound, the “Number of patients with drug-related thrombocytopenia, grade 1” value ([2]; maximum grade 1, n = 25) was 1, the “Number of patients with drug-related QT prolongation, grade 1” value ([2]; maximum grade 1, n = 25, 500 mg daily) was 1 and the “Number of patients with drug-related diarrhea, grade 2” value ([2]; maximum grade 2, n = 25) was 1. For the same compound, the “Number of patients with drug-related insomnia, grade 2” value ([2]; maximum grade 2, n = 25) was 1, the “Number of patients with drug-related leukopenia, grade 2” value ([2]; maximum grade 2, n = 25) was 1 and the “Number of patients with drug-related lymphocytopenia, grade 2” value ([2]; maximum grade 2, n = 25) was 1. The “Number of patients with drug-related QT prolongation, grade 2” value ([2]; maximum grade 2, n = 25, 500 mg daily) was 2, the “Number of patients with drug-related QT prolongation, grade 3” value ([2]; maximum grade 3, n = 25, 500 mg daily) was 1 and the “Patients who experienced grade 3 AEs” value ([2]; regardless of causality, CTCAE) was 7 patients. For the same compound, the “Patients who experienced a grade 4 AE” value ([2]; regardless of causality, neutropenia considered caused by leukemia) was 1, the “Patients reporting at least 1 AE (percent)” value ([2]; safety extension phase) was 53.3% and the “Patients reporting at least 1 AE, drug related” value ([2]; safety extension phase) was 5. The “Patients reporting at least 1 AE” value ([2]; safety extension phase, 15 patients) was 8 patients, the “NHL patients who achieved a partial response” value [3, 4] was 1 and the “NHL patients who achieved stable disease” value [3, 4] was 4. For the same compound, the “NHL patients with complete response on enzastaurin maintenance therapy after salvage chemotherapy” value [3, 4] was 1, the “Lymphoma patients with progressive disease” value [3, 5] was “three” and the “Lymphoma patients with stable disease” value [3, 5] was “five”. The “Duration of stable disease” value ([3]; one Hodgkin lymphoma patient) was 22.1 months, the “Duration of stable disease” value ([3]; one follicular lymphoma patient) was 25.2 months and the “Duration of partial response” value ([3]; one patient with relapsed DLBCL) was 8.1 months. The “Disease-free time on enzastaurin after complete response following salvage chemotherapy” value ([3]; one patient with relapsed DLBCL, still on drug at last follow-up) was 30 months, the “Activity in advanced/metastatic solid tumors” value ([3]; overall judgement) was “poor activity” and the Efficacy against lymphoma ([3]; overall judgement) was “limited efficacy”. For the same compound, the “Time of treatment at which partial response was observed” value ([3]; relapsed DLBCL patient, PET-CT) was 1.8 months.
